Data: ChEMBL document CHEMBL1130477, “Synthesis and structure-activity relationships of some novel oxetane carbapenems” (1997)
Converted amounts (≈) assume the structure as drawn.

Tests used:
[1] = tested on: Acinetobacter calcoaceticus; test: In vitro antibacterial activity against Acinetobacter calcoaceticus aceticus strain GC 756, expressed as MIC(minimum inhibitory concentration); format: functional
[2] = tested on: Citrobacter freundii; test: In vitro antibacterial activity against Citrobacter freundii strain GC 2211, expressed as MIC(minimum inhibitory concentration); format: functional
[3] = molecular target: T1, Dipeptidase 1 (Sus scrofa) (UniProt P22412); test: (§1) Stability towards hog kidney dehydropeptidase (DHP) expressed as relative hydrolysis to imipenem
T1 sequence (whole entry): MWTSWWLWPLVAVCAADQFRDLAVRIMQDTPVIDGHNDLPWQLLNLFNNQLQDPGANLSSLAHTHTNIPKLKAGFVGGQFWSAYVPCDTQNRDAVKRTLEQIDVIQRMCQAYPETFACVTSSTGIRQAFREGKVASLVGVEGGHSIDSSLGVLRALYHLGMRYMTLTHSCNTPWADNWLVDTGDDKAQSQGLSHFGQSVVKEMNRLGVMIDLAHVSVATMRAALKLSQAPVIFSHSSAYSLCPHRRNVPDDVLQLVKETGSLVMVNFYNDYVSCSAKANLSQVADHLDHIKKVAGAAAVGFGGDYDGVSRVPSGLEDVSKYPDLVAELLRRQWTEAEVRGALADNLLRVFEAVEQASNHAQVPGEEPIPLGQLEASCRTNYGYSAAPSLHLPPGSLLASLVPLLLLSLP

[4] = tested on: Enterococcus faecalis; test: In vitro antibacterial activity against Enterococcus faecalis strain GC 842, expressed as MIC(minimum inhibitory concentration); format: functional
[5] = tested on: Enterobacter cloacae; test: In vitro antibacterial activity against Enterobacter cloacae strain GC 2209, expressed as MIC(minimum inhibitory concentration); format: functional
[6] = tested on: Escherichia coli; test: In vitro antibacterial activity against Escherichia coli strain ATCC 25922, expressed as MIC(minimum inhibitory concentration); format: functional
[7] = tested on: Escherichia coli; test: In vitro antibacterial activity against Escherichia coli strain GC 1792, expressed as MIC(minimum inhibitory concentration); format: functional
[8] = tested on: Escherichia coli; test: In vitro antibacterial activity against Escherichia coli strain GC 2205, expressed as MIC(minimum inhibitory concentration); format: functional
[9] = tested on: Morganella morganii; test: In vitro antibacterial activity against Morganella morganii strain GC 2213, expressed as MIC(minimum inhibitory concentration); format: functional
[10] = tested on: Pseudomonas aeruginosa; test: In vitro antibacterial activity against Pseudomonas aeruginosa strain ATCC 27853, expressed as MIC(minimum inhibitory concentration); format: functional
[11] = tested on: Pseudomonas aeruginosa; test: In vitro antibacterial activity against Pseudomonas aeruginosa strain GC 1544, expressed as MIC(minimum inhibitory concentration); format: functional
[12] = tested on: Staphylococcus aureus; test: In vitro antibacterial activity against Staphylococcus aureus strain ATCC 29213, expressed as MIC(minimum inhibitory concentration); format: functional
[13] = tested on: Staphylococcus aureus; test: In vitro antibacterial activity against Staphylococcus aureus strain GC 2220, expressed as MIC(minimum inhibitory concentration); format: functional
[14] = tested on: Stenotrophomonas maltophilia; test: In vitro antibacterial activity against Xanthomonas maltophilia strain GC 562, expressed as MIC(minimum inhibitory concentration); format: functional
[15] = tested on: Enterococcus faecium; test: In vitro antibacterial activity against Enterococcus faecium strain GC 1182, expressed as MIC(minimum inhibitory concentration); format: functional
[16] = molecular target: T1, Dipeptidase 1 (Sus scrofa); test: as §1; format: functional, tissue-based

COC(=O)[C@H]1O[C@H](CN)[C@H]1SC1=C(C(=O)O)N2C(=O)[C@H]([C@@H](C)O)[C@H]2[C@H]1C
MIC [1]: 16 µg/mL (≈ 41.4 µM)
MIC [2]: 1 µg/mL (≈ 2.59 µM)
Relative hydrolysis [3]: < 1
MIC [4]: 32 µg/mL (≈ 82.8 µM)
MIC [5]: 0.25 µg/mL (≈ 0.647 µM)
MIC [6]: 0.25 µg/mL (≈ 0.647 µM)
MIC [7]: 0.5 µg/mL (≈ 1.29 µM)
MIC [8]: 0.5 µg/mL (≈ 1.29 µM)
MIC [9]: 16 µg/mL (≈ 41.4 µM)
MIC [10]: 128 µg/mL (≈ 331 µM)
MIC [11]: > 128 µg/mL
MIC [12]: 1 µg/mL (≈ 2.59 µM)
MIC [13]: 32 µg/mL (≈ 82.8 µM)
MIC [14]: > 128 µg/mL
MIC [15]: > 128 µg/mL

C[C@H]1C(S[C@H]2[C@@H](CN)O[C@@H]2CO)=C(C(=O)O)N2C(=O)[C@H]([C@@H](C)O)C12 (some centres not stated)
MIC [1]: 4 µg/mL (≈ 11.2 µM)
MIC [2]: 1 µg/mL (≈ 2.79 µM)
MIC [4]: 4 µg/mL (≈ 11.2 µM)
MIC [5]: 0.25 µg/mL (≈ 0.698 µM)
MIC [6]: 0.12 µg/mL (≈ 0.335 µM)
MIC [7]: 0.25 µg/mL (≈ 0.698 µM)
MIC [8]: 0.25 µg/mL (≈ 0.698 µM)
MIC [9]: 2 µg/mL (≈ 5.58 µM)
MIC [10]: 16 µg/mL (≈ 44.6 µM)
MIC [11]: 32 µg/mL (≈ 89.3 µM)
MIC [12]: 0.12 µg/mL (≈ 0.335 µM)
MIC [13]: 8 µg/mL (≈ 22.3 µM)
MIC [14]: > 128 µg/mL
MIC [15]: > 128 µg/mL

C[C@@H](O)[C@H]1C(=O)N2C(C(=O)[O-])=C(S[C@H]3[C@@H](C(=O)N(C)C)O[C@@H]3CO)[C@H](C)[C@H]12.[Na+]
MIC [1]: 32 µg/mL
MIC [2]: 8 µg/mL
MIC [4]: 32 µg/mL
MIC [5]: 2 µg/mL
MIC [6]: 0.5 µg/mL
MIC [7]: 1 µg/mL
MIC [8]: 0.5 µg/mL
MIC [9]: 4 µg/mL
MIC [10]: > 64 µg/mL
MIC [11]: > 64 µg/mL
MIC [12]: 4 µg/mL
MIC [13]: > 64 µg/mL
MIC [14]: > 64 µg/mL
MIC [15]: > 64 µg/mL

C[C@H]1C(S[C@@H]2[C@@H](C)O[C@@H]2CN)=C(C(=O)[O-])N2C(=O)[C@H]([C@@H](C)O)C12.[Na+] (some centres not stated)
MIC [1]: 16 µg/mL
MIC [2]: 1 µg/mL
MIC [4]: 4 µg/mL
MIC [5]: 0.5 µg/mL
MIC [6]: 0.12 µg/mL
MIC [7]: 0.12 µg/mL
MIC [8]: 0.25 µg/mL
MIC [9]: 4 µg/mL
MIC [10]: 64 µg/mL
MIC [11]: 128 µg/mL
MIC [12]: 0.12 µg/mL
MIC [13]: 8 µg/mL
MIC [14]: > 128 µg/mL
MIC [15]: > 128 µg/mL

CC1C(S[C@@H]2CCO[C@@H]2CN)=C(C(=O)O)N2C(=O)[C@H]([C@@H](C)O)[C@@H]12 (single isomer, unassigned)
MIC [1]: 2 µg/mL (≈ 5.84 µM)
MIC [2]: 0.12 µg/mL (≈ 0.35 µM)
Relative hydrolysis [16]: 8.5
MIC [4]: 1 µg/mL (≈ 2.92 µM)
MIC [5]: < 0.06 µg/mL
MIC [6]: ≤ 0.06 µg/mL
MIC [7]: ≤ 0.06 µg/mL
MIC [8]: ≤ 0.06 µg/mL
MIC [9]: 0.5 µg/mL (≈ 1.46 µM)
MIC [10]: 4 µg/mL (≈ 11.7 µM)
MIC [11]: 16 µg/mL (≈ 46.7 µM)
MIC [12]: ≤ 0.06 µg/mL
MIC [13]: 2 µg/mL (≈ 5.84 µM)
MIC [14]: > 128 µg/mL
MIC [15]: 64 µg/mL (≈ 187 µM)

C[C@@H](O)[C@H]1C(=O)N2C(C(=O)O)=C(SCCNC=N)C[C@H]12 [IMIPENEM ANHYDROUS]
MIC [1]: 0.5 µg/mL (≈ 1.67 µM)
MIC [2]: 0.5 µg/mL (≈ 1.67 µM)
Relative hydrolysis [3]: 100
MIC [4]: 1 µg/mL (≈ 3.34 µM)
MIC [5]: ≤ 0.06 µg/mL
MIC [6]: 0.12 µg/mL (≈ 0.401 µM)
MIC [7]: 0.12 µg/mL (≈ 0.401 µM)
MIC [8]: 0.12 µg/mL (≈ 0.401 µM)
MIC [9]: 2 µg/mL (≈ 6.68 µM)
MIC [10]: 2 µg/mL (≈ 6.68 µM)
MIC [11]: 16 µg/mL (≈ 53.4 µM)
MIC [12]: ≤ 0.06 µg/mL
MIC [13]: 1 µg/mL (≈ 3.34 µM)
MIC [14]: > 128 µg/mL
MIC [15]: 128 µg/mL (≈ 428 µM)

COC(=O)[C@H]1O[C@H](CO)[C@H]1SC1=C(C(=O)[O-])N2C(=O)[C@H]([C@@H](C)O)[C@H]2[C@H]1C.[Na+]
MIC [1]: 32 µg/mL
MIC [2]: 16 µg/mL
Relative hydrolysis [3]: < 1
MIC [4]: 16 µg/mL
MIC [5]: 4 µg/mL
MIC [6]: 0.5 µg/mL
MIC [7]: 1 µg/mL
MIC [8]: 0.25 µg/mL
MIC [9]: 4 µg/mL
MIC [10]: > 128 µg/mL
MIC [11]: > 128 µg/mL
MIC [12]: 2 µg/mL
MIC [13]: 32 µg/mL
MIC [14]: > 128 µg/mL
MIC [15]: > 128 µg/mL

COC(=O)[C@H]1O[C@H](COS(=O)(=O)c2ccc(C)cc2)[C@H]1SC1=C(C(=O)[O-])N2C(=O)[C@H]([C@@H](C)O)[C@H]2[C@H]1C.[Na+]
MIC [1]: > 128 µg/mL
MIC [2]: > 128 µg/mL
Relative hydrolysis [3]: < 1
MIC [4]: 64 µg/mL
MIC [5]: > 128 µg/mL
MIC [6]: > 128 µg/mL
MIC [7]: > 128 µg/mL
MIC [8]: 2 µg/mL
MIC [9]: > 128 µg/mL
MIC [10]: > 128 µg/mL
MIC [11]: > 128 µg/mL
MIC [12]: 4 µg/mL
MIC [13]: 64 µg/mL
MIC [14]: > 128 µg/mL
MIC [15]: > 128 µg/mL
